Patent publication US5464617A, “β-lactam compounds” (Hoffmann-La Roche Inc., priority 1994, dated 1995)
Counter-ions that a name gives are not always drawn.

Tests used:
[1] = system: E. coli 1346; experiment: Antibacterial activity of the products per se, serial dilution method in liquid medium (Test E); assay type: cell-based; conditions: product per se; for MIC E. coli 1346 (E): test E; for MIC E. coli 1346: Table 3, liquid medium
Excerpt: The antibacterial activity of the products per se is illustrated on the basis of Table 3 hereinafter, the minimum inhibitory concentration […] in vitro against E. coli 1346 being determined using the serial dilution method in liquid medium: […]

[2] = system: Citrobacter freundii 1982; experiment: MIC in vitro of a 1:4 combination of ceftriaxone with a compound of formula I (Test D); assay type: cell-based; conditions: for MIC C. freundii 1982 (D): test D; for MIC C. freundii 1982: Table 2
Protocol: The minimum inhibitory concentration in vitro ([…]) of a 1:4 combination of ceftriaxone with a compound of formula I against Citrobacter freundii 1982 was measured and compiled in Table 2 hereinafter.

[3] = Table 4, 1:4 combination of ceftriaxone with the compound
[4] = 1:4 combination of ceftriaxone with the compound

Compound | MIC E. coli 1346 (E) ([1]; Table 4) | MIC C. freundii 1982 (D) [2, 3] | also measured
O=C(O)C1=C(CSc2ncccn2)C[C@@H]2CN(C(=O)C(F)(F)F)[C@@H]3C(=O)N1[C@H]23 [72(b), (1aS,3aR,6bR)-1-Oxo-5-(pyrimidin-2-ylsulphanylmethyl)-2-trifluoroacetyl-1a,2,3,3a,4,6b-hexahydro-1H-2,6a-diazacyclobut[cd]indene-6-carboxylic acid sodium salt] | 4 µg/mL | 2 µg/mL | 
CNC(=O)OCC1=C(C(=O)O)N2C(=O)[C@@H]3[C@H]2[C@H](C1)CN3C(=O)C(F)(F)F [98(b), (1aS,3aR,6bR)-5-Methylcarbamoyloxymethyl-1-oxo-2-trifluoroacetyl-1a,2,3,3a,4,6b-hexahydro-1H-2,6a-diazacyclobut[cd]indene-6-carboxylic acid sodium salt] | 2 µg/mL | 1 µg/mL | 
N[C@@H](C(=O)N1C[C@H]2CC(COC(=O)NCc3ccncc3)=C(C(=O)O)N3C(=O)[C@@H]1[C@@H]23)c1ccccc1 [100(d), (1aS,3aR,6bR)-2-[(R)-2-phenyl-glycyl]-1-oxo-5-(pyridin-4-ylmethylcarbamoyloxymethyl)-1a,2,3,3a,4,6b-hexahydro-1H-2,6a-diazacyclobut[cd]indene-6-carboxylic acid hydrochloride] | 0.5 µg/mL | 2 µg/mL | 
O=C(Nc1ccc(O)cc1)OCC1=C(C(=O)O)N2C(=O)[C@@H]3[C@H]2[C@H](C1)CN3C(=O)C(F)(F)F [90(b), (1aS,3aR,6bR)-5-(4-Hydroxy-phenylcarbamoyloxymethyl)-2-trifluoroacetyl-1-oxo-1a,2,3,3a,4,6b-hexahydro-1H-2,6a-diazacyclobut[cd]indene-6-carboxylic acid sodium salt] | 0.5 µg/mL | 1 µg/mL | 
CC(=O)N1C[C@H]2CC(CSc3ncccn3)=C(C(=O)O)N3C(=O)[C@@H]1[C@@H]23 [72(a), (1aS,3aR,6bR)-2-Acetyl-1-oxo-5-(pyrimidin-2-ylsulphanylmethyl)-1a,2,3,3a,4,6b-hexahydro-1H-2,6a-diazacyclobut[cd]indene-6-carboxylic acid sodium salt] | 2 µg/mL | 4 µg/mL | 
O=C(O)C1=C(CSc2nc(-c3cccnc3)cs2)C[C@@H]2CN(C(=O)C(F)(F)F)[C@@H]3C(=O)N1[C@H]23 [67(b), (1aS,3aR,6bR)-1-Oxo-5-(4-pyridin-3-yl-thiazol-2-ylsulphanylmethyl)-2-trifluoroacetyl-la,2,3,3a,4,6b-hexahydro-1H-2,6a-diazacyclobut[cd]indene-6-carboxylic acid sodium salt] | 4 µg/mL | 8 µg/mL | 
N#C/C=C/C1=C(C(=O)O)N2C(=O)[C@@H]3[C@H]2[C@H](C1)CN3C(=O)Nc1ccc(O)cc1 [49(b), (E)-(1aS,3aR,6bR)-5-(2-Cyanovinyl)-2-(4-hydroxyphenylcarbamoyl)-1-oxo-1a,2,3,3a,4,6b-hexahydro-1H-2,6a-diazacyclobut[cd]indene-6-carboxylic acid sodium salt] | 4 µg/mL | 1 µg/mL | 
O=C(O)C1=C(CSc2ccncc2)O[C@@H]2CN(C(=O)Nc3ccc(O)cc3)[C@@H]3C(=O)N1[C@@H]32 [31(d), (1aS,3aR,6bS)-2-(4-Hydroxy-phenylcarbamoyl)-1-oxo-5-(pyridin-4-ylsulphanylmethyl)-1,1a,2,3,3a,6b-hexahydro-4-oxa-2,6a-diazacyclobut[cd]indene-6-carboxylicacid sodium salt] | > 32 µg/mL | 1 µg/mL | 
CC(C)(C)OC(=O)CCNC(=O)N1C[C@H]2CC(C[n+]3ccccc3)=C(C(=O)[O-])N3C(=O)[C@@H]1[C@@H]23 [23(f), (1aS,3aR,6bR)-2-(2-t-Butoxycarbonyl-ethylcarbamoyl)-1-oxo-5-(pyridin-1-yliomethyl)-1a,2,3,3a,4,6b-hexahydro-1H-2,6a-diazacyclobut[cd]indene-6-carboxylate] | > 32 µg/mL | 4 µg/mL | 
NC(=O)Cn1nnnc1SCC1=C(C(=O)O)N2C(=O)[C@@H]3[C@H]2[C@@H](CN3C=O)O1 [38(b), (1 aS ,3aR, 6 bS )-5-(1-Carbamoylmethyl-1H-tetrazol-5-yl-sulfanylmethyl)-2-formyl-1-oxo-1,1a,2,3,3a,6b-hexahydro-4-oxa-2,6a-diaza-cyclobut[cd]indene-6-carboxylic acid sodium salt] | 8 µg/mL | 4 µg/mL | 
NC(=O)c1ccc(NC(=O)N2C[C@H]3CC(CSc4ccncc4)=C(C(=O)O)N4C(=O)[C@@H]2[C@@H]34)cc1 [18(e), (1aS,3aR,6bR)-2-(4-Carbamoyl-phenylcarbamoyl)-1-oxo-5-(pyridin-4-ylsulphanylmethyl)-1a,2,3,3a,4,6b-hexahydro-1H-2,6a-diazacyclobut[cd]indene-6-carboxylic acid] |  |  | MIC E. coli 1346 (E) ([1]; Table 5, particularly preferred products): > 32 µg/mL; MIC C. freundii 1982 (D) ([2]; Table 5, particularly preferred products, 1:4 combination with ceftriaxone): 0.12 µg/mL
O=C(O)C1=C(Sc2ccncc2)C[C@@H]2CN(C(=O)C(F)(F)F)[C@@H]3C(=O)N1[C@H]23 [3(ai), (1aS,3aR,6bR)-1-Oxo-5-(pyridin-4-ylsulphanyl)-2-trifluoracetyl-1a,2,3,3a,4,6b-hexahydro-1H-2,6a-diazacyclobut[cd]indene-6-carboxylic acid sodium salt] | > 32 µg/mL | 32 µg/mL | 
CS(=O)(=O)OC1=C(C(=O)O)N2C(=O)[C@H]3NC[C@@H](C1)[C@H]32 [Example 8, (1aS,3aR,6bR)-5-Methylsulphonyloxy-1-oxo-1a,2,3,3a,4,6b-hexahydro-1H-2,6a-diazacyclobut[cd]indene-6-carboxylic acid trifluoroacetate] |  |  | MIC E. coli 1346 [1]: 2 µg/mL; MIC C. freundii 1982 [2, 4]: 1 µg/mL
O=C(O)C1=C(CSc2ccncc2)C[C@@H]2CN(C(=O)Nc3ccc(O)cc3)[C@@H]3C(=O)N1[C@H]23 [18(j), (1aS,3aR,6bR)-2-(4-Hydroxy-phenylcarbamoyl)-1-oxo-5-(pyridin-4-ylsulphanylmethyl)-1a,2,3,3a,4,6b-hexahydro-1H-2,6a-diazacyclobut[cd]indene-6-carboxylic acid sodium salt] | > 32 µg/mL | 0.5 µg/mL | 
O=C([O-])C1=C(C[n+]2ccccc2)C[C@@H]2CN[C@@H]3C(=O)N1[C@H]23 [Example 22, (1aS,3aR,6bR)-1-Oxo-5-(pyridin-1-yliomethyl)-1a,2,3,3a,4,6b-hexahydro-1H-2,6a-diazacyclobut[cd]indene-6-carboxylate trifluoroacetate] |  |  | MIC E. coli 1346 [1]: 4 µg/mL; MIC C. freundii 1982 [2, 4]: 4 µg/mL
Cn1nc[n+](C)c1CSC1=C(C(=O)[O-])N2C(=O)[C@@H]3[C@H]2[C@H](C1)CN3C(=O)Nc1ccc(O)cc1 [3(q), (1aS,3aR,6bR)-5-[(1,4-Dimethyl-1H-1,2,4-triazol-5-ylio)methylsulphanyl]-2-(4-hydroxy-phenylcarbamoyl)-1-oxo-1a,2,3,3a,4,6b-hexahydro-1H-2,6a-diazacyclobut[cd]indene-6-carboxylate] | > 32 µg/mL | 2 µg/mL | 
CC(=O)N1C[C@H]2OC(CSc3ccncc3)=C(C(=O)O)N3C(=O)[C@@H]1[C@@H]23 [32(a), (1aS,3aR,6bS)-2-Acetyl-5-(pyridin-4-ylsulphanylmethyl)-1-oxo-1,1a,2,3,3a,6b-hexahydro-4-oxa-2,6a-diazacyclobut[cd]indene-6-carboxylic acid sodium salt] | > 32 µg/mL | 16 µg/mL | 
CNC(=O)Cn1nnnc1SCC1=C(C(=O)O)N2C(=O)[C@@H]3[C@H]2[C@H](C1)CN3C(C)=O [74(a), (1aS,3aR,6bR)-2-Acetyl-5-(1-methylcarbamoylmethyl-1H-tetrazol-5-ylsulphanylmethyl)-1-oxo-1a,2,3,3a,4,6b-hexahydro-1H-2,6a-diazacyclobut[cd]indene-6-carboxylic acid sodium salt] | 2 µg/mL | 1 µg/mL | 
NC(=O)c1ccc(NC(=O)N2C[C@H]3CC(Sc4ccncc4)=C(C(=O)O)N4C(=O)[C@@H]2[C@@H]34)cc1 [3(n), (1aS,3aR,6bR)-2-(4-Carbamoyl-phenylcarbamoyl)-1-oxo-5-(pyridin-4-ylsulphanyl)-1a,2,3,3a,4,6b-hexahydro-1H-2,6a-diazacyclobut[cd]indene-6-carboxylic acid sodium salt] | > 32 µg/mL | 1 µg/mL | 
N#C/C=C\C1=C(C(=O)O)N2C(=O)[C@@H]3[C@H]2[C@H](C1)CN3C(=O)Nc1ccc(O)cc1 [49(a), (Z) -(1aS,3aR,6bR)-5-(2-Cyanovinyl)-2-(4-hydroxyphenylcarbamoyl)-1-oxo-1a,2,3,3a,4,6b-hexahydro-1H-2,6a-diazacyclobut[cd]indene-6-carboxylic acid sodium salt] | > 32 µg/mL | 2 µg/mL | 
Cn1nnnc1SCC(=O)N1C[C@H]2CC(OS(C)(=O)=O)=C(C(=O)O)N3C(=O)[C@@H]1[C@@H]23 [11(b), (1aS,3aR,6bR)-5-Methylsulphonyloxy-2-(1-methyl-1H-tetrazol-5-ylsulphanylacetyl)-1-oxo-1a,2,3,3a,4,6b-hexahydro-1H-2,6a-diazacyclobut[cd]indene-6-carboxylic acid sodium salt] |  |  | MIC E. coli 1346 [1]: 16 µg/mL; MIC C. freundii 1982 [2, 4]: 0.5 µg/mL
CC(=O)Nc1nnc(SCC2=C(C(=O)O)N3C(=O)[C@@H]4[C@H]3[C@H](C2)CN4C(C)=O)s1 [19(j), (1aS,3aR,6bR)-2-Acetyl-5-(5-acetylamino-1,3,4-thiadiazol-2-ylsulphanylmethyl)-1-oxo-1a,2,3,3a,4,6b-hexahydro-1H-2,6a-diazacyclobut[cd]indene-6-carboxylic acid sodium salt] | 0.5 µg/mL | 2 µg/mL | 
